In publication PMC8199755, “In Vitro and In Vivo Trypanocidal Efficacy of Synthesized Nitrofurantoin Analogs” (Molecules, 2021) one finds IC50 data, which are given here for nine compounds.

The structures appear in SMILES notation. Like-named read-outs stand apart in the source and are kept apart here.

One data set relates to T. b. brucei GUTat3.1. Nature of the data set: In vitro trypanocidal activity (CellTiter-Glo, 3 days). It counts as cell-based. The settings on record: Trypanosoma brucei, 72 h, bloodstream forms, 37 °C, mean ± SD of triplicate, read-out: Trypanocidal Activity IC50 ± SD, Tbb GUTat3.1. As for the experimental part:
(§1) The bloodstream forms of T. b. brucei GUTat3.1, T. b. rhodesiense IL1501, T. b. rhodesiense Chirundu, T. b. gambiense IL1922, and T. evansi Tansui strains were propagated in culture at 37 °C, whereas the T. congolense IL3000 strain was propagated at 33 °C in Hirumi’s modified Iscove’s medium-9, supplemented with 20% heat-inactivated fetal bovine serum. The bloodstream form cultures were maintained by replacing the entire culture supernatant with fresh medium, every other day.
(§2) The trypanocidal activity and cytotoxicity of nitrofurantoin analogs were evaluated according to previous reports, with some modifications. In brief, bloodstream forms adjusted at 2.5 × 10^3 cells/mL (T. b. brucei GUTat3.1, T. b. gambiense IL1922, and T. b. rhodesiense IL1501), 1 × 10^4 cells/mL (T. evansi Tansui and T. b. rhodesiense Chirundu), and 1 × 10^5 cells/mL (T. congolense IL3000), were cultivated in Nunc® MicroWell 96-well optical bottom plates (Thermo Fisher Scientific, Waltham, MA, USA) and exposed to various analogs at seven different concentrations for 3 days, in an incubator at 37 °C (33 °C for T. congolense IL3000). […] Twenty-five microliters of the Cell-TiterGlo® (Promega, Madison, WI, USA) reagent was added into each well, and bioluminescence was measured using a GloMax®-Multi+Detection System plate reader (Promega).
(§3) The half maximum inhibitory concentration (IC50) of each analog in trypanosomes and the Madin–Darby bovine kidney cells was calculated using the GraphPad Prism version 8 software (GraphPad, Inc., San Diego, CA, USA).

The test system of data set [1] is T. b. rhodesiense Chirundu. Described as above. It counts as cell-based. Particulars: Trypanosoma brucei, 72 h, bloodstream forms, 37 °C, mean ± SD of triplicate, read-out: Trypanocidal Activity IC50 ± SD, Tbr Chirundu. As for the experimental part: as §1, §2, §3
For a further data set, the system named is T. evansi Tansui. The description is as above. The settings on record: 72 h, bloodstream forms, 37 °C, mean ± SD of triplicate, read-out: Trypanocidal Activity IC50 ± SD, Tev Tansui. It counts as cell-based. The protocol: as §1, §2, §3
Another data set relates to T. b. gambiense IL1922. Described as above. It counts as cell-based. The settings on record: Trypanosoma brucei, 72 h, bloodstream forms, 37 °C, mean ± SD of triplicate, read-out: Trypanocidal Activity IC50 ± SD, Tbg IL1922. As for the experimental part: as §1, §2, §3
In another data set the test system is T. b. rhodesiense IL1501. The description is as above. It counts as cell-based. Particulars: Trypanosoma brucei, 72 h, bloodstream forms, 37 °C, mean ± SD of triplicate, read-out: Trypanocidal Activity IC50 ± SD, Tbr IL1501. The protocol: as §1, §2, §3
In a further data set the test system is T. congolense IL3000. Described as above. It counts as cell-based. The settings on record: bloodstream forms, 33 °C, mean ± SD of triplicate, read-out: Trypanocidal Activity IC50 ± SD, Tc IL3000. As for the experimental part:
as §1, §2, §3

The nature of data set [2]: Cytotoxicity (Cell Counting Kit-8, 3 days). It counts as cell-based, bovine. The settings on record: bovine, Madin–Darby bovine kidney (MDBK) cells, 37 °C, mean ± SD of triplicate. The protocol: Additionally, Madin–Darby bovine kidney cells were cultivated (density, 1 × 10^4 cells/mL) in a 96-well cell culture plate (Thermo Fisher Scientific) with the analogs, at seven different concentrations for 3 days at 37 °C. Next, 10 µl of the Cell Counting Kit-8 solution (Dojindo, Kumamoto, Japan) was added into each well […] 4 h of incubation. Absorbance was measured at 450 nm using a GloMax®-Multi+Detection System plate reader.
as §3

On to `CCCCCCCN1C(=O)CN(/N=C/c2ccc([N+](=O)[O-])o2)C1=O` [Analog 7, (E)-3-Heptyl-1-([(5-nitrofuran-2-yl)methylene]amino)imidazolidine-2,4-dione], for which the half-maximal inhibitory concentration (IC50) in the data set with T. b. brucei GUTat3.1 was found to be 2.06 ± 0.75 µM; in data set [1], 0.056 ± 0.026 µM; in the data set with T. evansi Tansui it was 1.02 ± 0.1 µM; in the data set with T. b. gambiense IL1922, 1.99 ± 0.75 µM; in the data set on T. b. rhodesiense IL1501 it was 1.45 ± 0.86 µM; with T. congolense IL3000 (Trypanosoma congolense, 72 h) it was 0.04 ± 0.011 µM. Further, half-maximal inhibition in data set [2] (IC50 at 3 days) was put at 92.3 ± 6.52 µM.
For `CCCN1C(=O)CN(/N=C/c2ccc([N+](=O)[O-])o2)C1=O` [Analog 3, (E)-1-([(5-Nitrofuran-2-yl)methylene]amino)-3-propylimidazolidine-2,4-dione], the concentration for half-maximal inhibition (IC50) in the data set on T. b. brucei GUTat3.1 stood at 14.1 ± 0.34 µM; in data set [1], 0.81 ± 0.24 µM; with T. evansi Tansui, 6.53 ± 0.61 µM; in the data set on T. b. gambiense IL1922, 14.7 ± 1.32 µM; with T. b. rhodesiense IL1501, 14 ± 1.42 µM; with T. congolense IL3000 (Trypanosoma congolense, 72 h) it was 0.33 ± 0.18 µM. Further, the IC50 at 3 days in data set [2] came out at 39.3 ± 1.09 µM.
Take `N=C(N)c1ccc(OCCCCCOc2ccc(C(=N)N)cc2)cc1` [Pentamidine, reference compound]: the IC50 in the data set with T. b. brucei GUTat3.1 was 0.041 ± 0.0023 µM; in data set [1], 0.05 ± 0.012 µM; with T. evansi Tansui, 0.00097 ± 0.00019 µM; with T. b. gambiense IL1922 it was 0.014 ± 0.0031 µM; in the data set with T. b. rhodesiense IL1501 it was 0.029 ± 0.0062 µM; in the data set on T. congolense IL3000 (Trypanosoma congolense, 72 h), 0.33 ± 0.054 µM.
In the case of `NCCCC(N)(C(=O)O)C(F)F` (centres unmarked) [Eflornithine, reference compound], the IC50 with T. b. brucei GUTat3.1 was determined as 38.6 ± 9.88 µM; in data set [1] it was 35.6 ± 10.2 µM; in the data set with T. evansi Tansui, 57.2 ± 17.6 µM; with T. b. gambiense IL1922, 36.7 ± 12.9 µM; in the data set with T. b. rhodesiense IL1501, 46 ± 17.1 µM; in the data set on T. congolense IL3000 (Trypanosoma congolense, 72 h) it was 16.1 ± 2.93 µM.
For the compound `CCN1C(=O)CN(/N=C/c2ccc([N+](=O)[O-])o2)C1=O` [Analog 2, (E)-3-Ethyl-1-([(5-nitrofuran-2-yl)methylene]amino)imidazolidine-2,4-dione], the IC50 in the data set with T. b. brucei GUTat3.1 amounted to 10.8 ± 4.84 µM; in the data set on T. evansi Tansui it was 5.39 ± 0.53 µM; with T. b. gambiense IL1922 it was 11.3 ± 4.8 µM; with T. b. rhodesiense IL1501, 11.4 ± 5.24 µM. The compound also came in with an IC50 at 3 days in data set [2] of 44.8 ± 1.69 µM.
`Cc1ccc(C(=O)Nc2ccc(S(=O)(=O)O)c3cc(S(=O)(=O)O)cc(S(=O)(=O)O)c23)cc1NC(=O)c1cccc(NC(=O)Nc2cccc(C(=O)Nc3cc(C(=O)Nc4ccc(S(=O)(=O)O)c5cc(S(=O)(=O)O)cc(S(=O)(=O)O)c45)ccc3C)c2)c1` [Suramin, reference compound]: the IC50 in the data set on T. b. brucei GUTat3.1 is 0.066 ± 0.0052 µM; in data set [1], 0.066 ± 0.071 µM; in the data set with T. evansi Tansui it was 0.38 ± 0.058 µM; in the data set with T. b. gambiense IL1922, 0.064 ± 0.0018 µM; in the data set on T. b. rhodesiense IL1501, 0.076 ± 0.011 µM; in the data set on T. congolense IL3000 (Trypanosoma congolense, 72 h), 7.17 ± 0.87 µM.
As to `CCCCCN1C(=O)CN(/N=C/c2ccc([N+](=O)[O-])o2)C1=O` [Analog 5, (E)-1-([(5-Nitrofuran-2-yl)methylene]amino)-3-pentylimidazolidine-2,4-dione], the IC50 was 4.24 ± 1.99 µM with T. b. brucei GUTat3.1; 5.44 ± 0.17 µM in the data set on T. evansi Tansui; 3.42 ± 1.47 µM with T. b. gambiense IL1922; 5.69 ± 1.66 µM with T. b. rhodesiense IL1501; 0.35 ± 0.15 µM in the data set on T. congolense IL3000 (Trypanosoma congolense, 72 h). In data set [2], the IC50 at 3 days is 39.1 ± 5.86 µM.
`CN1C(=O)CN(/N=C/c2ccc([N+](=O)[O-])o2)C1=O` [Analog 1, (E)-3-Methyl-1-([(5-nitrofuran-2-yl)methylene]amino)imidazolidine-2,4-dione]: the IC50 in the data set with T. b. brucei GUTat3.1 was 3.61 ± 0.4 µM; with T. evansi Tansui it was 1.61 ± 0.098 µM; in the data set on T. b. gambiense IL1922 it was 3.6 ± 0.26 µM; with T. b. rhodesiense IL1501, 7.02 ± 0.094 µM; in the data set on T. congolense IL3000 (Trypanosoma congolense, 72 h), 0.19 to 0.73 µM; in the data set with T. congolense IL3000, 0.19 ± 0.076 µM. Moreover, the IC50 at 3 days in data set [2] was found to be 65.2 ± 12.8 µM.
In the case of `CC1CS(=O)(=O)CCN1/N=C/c1ccc([N+](=O)[O-])o1` (centres unmarked) [Nifurtimox, reference compound], the half-maximal inhibitory concentration (IC50) in the data set with T. b. brucei GUTat3.1 was 4.66 µM; in data set [1], 1.46 ± 0.35 µM; in the data set with T. evansi Tansui, 2.62 ± 1.4 µM; with T. b. gambiense IL1922, 4.58 ± 2.38 µM; in the data set on T. b. rhodesiense IL1501, 4.35 ± 1.59 µM; in the data set with T. congolense IL3000 (Trypanosoma congolense, 72 h), 1.06 ± 0.22 µM.
